Columns and labels:
[1] = system: A.D.P.-induced blood-platelet aggregation; test: A.D.P.-induced blood-platelet aggregation after oral treatment of rats; format: in vivo, Wistar rats; settings: Rattus norvegicus, 100 mg/kg oral, 3 hrs after treatment, 10 μM A.D.P. solution, read-out: Percent inhibition of blood-platelet aggregation, A.D.P.
Method: (§1) Blood is taken from the jugular vein of Wistar rats. From this citrated blood, and after centrifugation, a plasma containing 600,000±20,000 blood-platelets per mm 3 is reconstituted, which plasma is used in all aggregation determinations.
(§2) 0.4 ml plasma is placed in a siliconized tube provided with a magnet bar which is also siliconized. The tube is introduced into an aggregometer connected to an apparatus which records the optical density variations. When light transmission reaches a stable value, 0.5 ml of a solution containing 10 μM A.D.P. (adenosine diphosphate) is introduced into the tube.
Blood-platelet aggregation then induces an increase of light transmission, followed by a decrease subsequent to the disaggregation stage.
The maximal optical density variation thus determined characterizes the extent of the aggregation.
(§3) Different groups of 20 rats each are used. Each group is orally administered a test derivative, at a dosage of 100 mg/kg. The results obtained during both tests are reported in following Table I which indicates the percent inhibition of blood-platelet aggregation obtained with respect to the reference group, 3 hrs after treatment.

[2] = system: collagen-induced blood-platelet aggregation; test: Collagen-induced blood-platelet aggregation after oral treatment of rats; format: in vivo, Wistar rats; settings: Rattus norvegicus, 100 mg/kg oral, 3 hrs after treatment, collagen (bovine tendon extract), read-out: Percent inhibition of blood-platelet aggregation, Collagen
Method: as §1, §2
The A.D.P. solution is substituted with a collagen solution (bovine tendon extract).
as §3

mouse = test: Antalgic action, mechanical stimulation method according to Haffner; format: in vivo; settings: 100 mg/kg oral
Method: (a) Mechanical stimulation method according to Haffner (Deutsch. Wish., 1959, 55, 731-733). This method comprises placing a pressure forceps at the base of the tail of a mouse and recording the number of bites self-inflicted by the animal in its endeavour to remove the forceps. The decrease of the number of bites prior and subsequent to oral administration of the test compound at a dosage of 100 mg/kg provides a measure of the antalgic activity of the derivatives of this invention.

mice = test: Antalgic action, acetic acid method according to Koster, Anderson & de Beer; format: in vivo; settings: 100 mg/kg oral, 30 minutes prior to i.p. acetic acid
Excerpt: (b) Acetic acid method, according to Koster, Anderson & de Beer (Fed. Proced., 18, 1959, 412, 1, 626)
Intraperitoneal injection of a dilute acetic acid solution induces, in mice, characteristic writhing movements which are repeated due to the effect of pain.

[3] = system: carrageenin-induced edema; test: Localized carrageenin-induced edema method; format: in vivo; settings: rats, 100 mg/kg oral one hour before, with, and 1 and 2.5 hours after carrageenin
Method: 0.1 ml of a 1% carrageenin solution is injected at time O in the metatarsal flexor muscles of the right hind limb of rats.
The animals of the treated group are additionally orally administered 100 mg/kg of the test derivative, respectively one hour prior to, and then simultaneously with the phlogogenic agent, and then one hour and 2.5 hours thereafter. The determinations effected with a ROCH micrometer at times 0, 1 hr, 2 hrs, 3 hrs and 5 hrs after carrageenin administration make it possible to determine the percent anti-inflammatory activity, as a function of time.

[4] = system: ovalbumin-induced systemic edema; test: Ovalbumin-induced systemic edema method; format: in vivo; settings: rats, 100 mg/kg oral one hour before and with ovalbumin
Method: Rats are administered a simultaneous intraperitoneal injection of 1 ml ovalbumin and 0.5 ml of a 1% aqueous Evans Blue solution. The animals of the treated group are additionally orally administered 100 mg/kg of the test derivative, one hour prior to ovalbumin administration and then simultaneously with said ovalbumin administration. The intensity of the phenomenon thus induced is rated according to a scale from 1 to 5, according to the progress of the inflammatory syndrome. The determinations are effected after 2 hours and after 3 hours. Thus are determined the mean intensity of the edema and the percent decrease of the edema reaction.

Red blood cells [5] = test: Anti-sludge in vitro, "preventive" treatment (protamine sulfate agglomeration of red blood cells); format: cell-based, rats; settings: for percent agglomerates formed by 5 RBC: controls 6 or 8; for percent agglomerates formed by 4 RBC: controls 9 or 8; for percent agglomerates formed by 3 RBC: controls 13 or 14; for percent agglomerates formed by 2 RBC: controls 17 or 16; for percent free red blood cells (size 1): controls 32 (n°3, 4, 6) or 30 (n°11, 12, 17)
Method: (§4) Red blood cells of rats are washed three times and diluted to 1/250 concentration in physiological saline. In each of 5 tubes are placed 0.6 ml of this suspension and 0.2 ml physiological saline. Into each tube is then added, respectively, an amount of 0, 25, 50, 100 and 200 μg of the test derivative contained in 0.2 ml of solution. After incubation for one hour at 37° C., 0.2 ml of a solution containing 125 μg/ml protamine sulfate is added thereto, and the resulting material is further incubated for 0.5 hour at 37° C. The red blood cells of each tube are then examined with a Mallasez cell, and the percent free red blood cells (RBC) and the percent agglomerates formed by 2, 3, 4, 5 . . . RBC are noted.

Red blood cells [6] = test: Anti-sludge in vitro, "curative" procedure (protamine sulfate agglomeration of red blood cells); format: cell-based, rats; settings: 25 μg; for percent aggregates, size of agglomerates 4: reference tests 11; for percent aggregates, size of agglomerates 3: reference tests 15 or 16; for percent aggregates, size of agglomerates 2: reference tests 19; for percent aggregates, size of agglomerates 1: reference tests 33 (n°3, 4, 6) or 30 (n°11, 12, 17)
Method: as §4
The test was repeated according to a "curative" procedure. The red blood cells were first contacted with the protamine sulfate and, after incubation for 0.5 hour, 0.2 ml containing 25 μg of the test derivative were added thereto, after which the material was further incubated for one hour at 37° C.

SMILES | inhibition at 100 mg/kg [1] [%] | inhibition at 100 mg/kg [2] [%] | mean percent antalgia after 30 min. (mouse) [%] | mean percent antalgia after 1 hr (mouse) [%] | mean percent antalgia after 2 hrs (mouse) [%] | mean percent antalgia after 3 hrs (mouse) [%] | percent antalgia (mice) [%] | Percent anti-inflammatory activity after 1 hour [3] [%] | Percent anti-inflammatory activity after 2 hours [3] [%] | Percent anti-inflammatory activity After 3 hours [3] [%] | Percent decrease of the edema reaction After 2 hours [4] [%] | Percent decrease of the edema reaction After 3 hours [4] [%] | percent agglomerates formed by 5 RBC (Red blood cells [5]; 25 μg per tube) [%] | percent agglomerates formed by 4 RBC (Red blood cells [5]; 25 μg per tube) [%] | percent agglomerates formed by 3 RBC (Red blood cells [5]; 25 μg per tube) [%] | percent agglomerates formed by 2 RBC (Red blood cells [5]; 25 μg per tube) [%] | percent free red blood cells (size 1) (Red blood cells [5]; 25 μg per tube) [%] | percent agglomerates formed by 5 RBC (Red blood cells [5]; 50 μg per tube) [%] | percent agglomerates formed by 4 RBC (Red blood cells [5]; 50 μg per tube) [%] | percent agglomerates formed by 3 RBC (Red blood cells [5]; 50 μg per tube) [%] | also measured
O=C1c2ccsc2CCN1Cc1ccccc1 [Derivative n°2, 4-Oxo-5-benzyl-4,5,6,7-tetrahydro-thieno[3,2-c]pyridine] | 61.5 | 91.2 | 71 | 65 | 58 | 51 | 68 | 36 | 47 | 53 | 42 | 50 | – | – | – | – | – | – | – | – | –
CC(=O)N1CCc2sccc2C1=O [Derivative n°5, 4-Oxo-5-acetyl-4,5,6,7-tetrahydro-thieno[3,2-c]pyridine] | 63.2 | 92.6 | 66 | 60 | 54 | 48 | 64 | 39 | 51 | 55 | 38 | 47 | – | – | – | – | – | – | – | – | –
O=C1NCCc2sccc21 [Derivative n°7, 4-Oxo-4,5,6,7-tetrahydro-thieno[3,2-c]pyridine] | 62.3 | 92.6 | 78 | 76 | 72 | 64 | 75 | 44 | 55 | 63 | 51 | 63 | – | – | – | – | – | – | – | – | –
CC(=O)N1CCc2ccsc2C1=O [Derivative n°11, 6-Acetyl-7-oxo-4,5,6,7-tetrahydro-thieno[2,3-c]-pyridine] | 63 | 92.8 | 65 | 61 | 57 | 50 | 71 | 41 | 50 | 58 | 45 | 55 | 2 | 2 | 14 | 22 | 60 | 1 | 2 | 10 | percent agglomerates formed by 2 RBC (Red blood cells [5]; 50 μg per tube): 22%; percent free red blood cells (size 1) (Red blood cells [5]; 50 μg per tube): 65%; percent agglomerates formed by 4 RBC (Red blood cells [5]; 100 μg per tube): 1%; percent agglomerates formed by 3 RBC (Red blood cells [5]; 100 μg per tube): 5%; percent agglomerates formed by 2 RBC (Red blood cells [5]; 100 μg per tube): 13%; percent free red blood cells (size 1) (Red blood cells [5]; 100 μg per tube): 81%; percent agglomerates formed by 4 RBC (Red blood cells [5]; 200 μg per tube): 1%; percent agglomerates formed by 3 RBC (Red blood cells [5]; 200 μg per tube): 2%; percent agglomerates formed by 2 RBC (Red blood cells [5]; 200 μg per tube): 14%; percent free red blood cells (size 1) (Red blood cells [5]; 200 μg per tube): 83%; percent aggregates, size of agglomerates 5 (Red blood cells [6]; reference tests 8 or 9): 1%; percent aggregates, size of agglomerates 4 (Red blood cells [6]): 2%; percent aggregates, size of agglomerates 3 (Red blood cells [6]): 4%; percent aggregates, size of agglomerates 2 (Red blood cells [6]): 15%; percent aggregates, size of agglomerates 1 (Red blood cells [6]): 78%
O=C1NCCc2ccsc21 [Derivative n°12, 7-Oxo-4,5,6,7-tetrahydro-thieno[2,3-c]pyridine] | 62.7 | 90.6 | 81 | 78 | 73 | 67 | 77 | 42 | 54 | 61 | 53 | 64 | 1 | 2 | 15 | 21 | 61 | 2 | 2 | 12 | percent agglomerates formed by 2 RBC (Red blood cells [5]; 50 μg per tube): 20%; percent free red blood cells (size 1) (Red blood cells [5]; 50 μg per tube): 64%; percent agglomerates formed by 4 RBC (Red blood cells [5]; 100 μg per tube): 2%; percent agglomerates formed by 3 RBC (Red blood cells [5]; 100 μg per tube): 2%; percent agglomerates formed by 2 RBC (Red blood cells [5]; 100 μg per tube): 18%; percent free red blood cells (size 1) (Red blood cells [5]; 100 μg per tube): 78%; percent agglomerates formed by 4 RBC (Red blood cells [5]; 200 μg per tube): 1%; percent agglomerates formed by 3 RBC (Red blood cells [5]; 200 μg per tube): 1%; percent agglomerates formed by 2 RBC (Red blood cells [5]; 200 μg per tube): 9%; percent free red blood cells (size 1) (Red blood cells [5]; 200 μg per tube): 89%; percent aggregates, size of agglomerates 4 (Red blood cells [6]): 1%; percent aggregates, size of agglomerates 3 (Red blood cells [6]): 3%; percent aggregates, size of agglomerates 2 (Red blood cells [6]): 14%; percent aggregates, size of agglomerates 1 (Red blood cells [6]): 82%
COc1cc(COC(=O)C2Cc3sccc3C(=O)N2Cc2cc(OC)c(OC)c(OC)c2)cc(OC)c1OC (stereo not drawn) [Derivative n°15, 4-Oxo-6-(3,4,5-trimethoxy-benzyloxycarbonyl)-5-(3,4,5-trimethoxybenzyl)-4,5,6,7-tetrahydro-thieno[3,2-c]pyridine] | 61.8 | 91.6 | 73 | 67 | 63 | 56 | 69 | 40 | 52 | 57 | 48 | 58 | – | – | – | – | – | – | – | – | –

Source: US4193997A, “Thieno[2,3-c] and [3,2-c]pyridines, process for their preparation and therapeutic applications thereof” (Parcor, priority 1977, dated 1980)
